Data: patent publication US20240016875A1, “SHAN-ZHA FOR THE TREATMENT OF DEPRESSION AND ANXIETY DISORDERS” (THE OPEN UNIVERSITY, priority 2020, published 2024)
“Also recorded” adds a separate entry of the source.

Experiments:
rab11B gene = assay: Hippocampal RNA-sequencing, gene expression after UCMS; type: in vivo; conditions: hippocampus; UCMS mice; Shan-zha 30 mg/kg, escitalopram 15 mg/kg, 3 weeks; vs UCMS-exposed saline treated group
Method: (§1) An Unbiased genome-wide transcriptomic profiling was conducted to reveal alterations in gene expression in the hippocampus induced by treatment. Male ICR mice were subjected to UCMS, after which they were treated with Shan-zha (30 mg/kg), NHT (30 mg/kg), Esciatlopram (15 mg/kg) or saline for 3 weeks. The anxiolytic-like effect of the treatments was verified by EPM. Subsequently, brains were rapidly removed and RNA was isolated from the hippocampus using RNeasy kit (Qiagen). RNA-sequencing (on NGS) and gene expression analysis was conducted. The analysis yielded a wide range of changes in gene expression.
(§2) First, all samples were normalized and clustered in order to verify that there are no noticeable biases based on batches/process/technician/day.. Next, hit maps were generated, in order to observe the global differences between the groups. After which, a PCA analysis was performed to visualize the separation between the samples. Finally, Differential expression analysis with DESE-Q was done, and changes in gene expression of the following genes, which are highly relevant to anxiety, depression or drug-related side effects were followed: […]

Ckb gene = assay: as above; type: in vivo; conditions: hippocampus; UCMS mice; Shan-zha 30 mg/kg, escitalopram 15 mg/kg, 3 weeks; vs UCMS-exposed saline treated group
Method: as §1, §2

21 days old pups = assay: EPM in 21 days old pups treated via lactation; type: in vivo, mice
Method: The EPM task was performed as previously described. Shortly, each mouse was placed in the center of the maze and video recorded for 5 min. Anxiety-like behavior was expressed as the time the mouse spent in the open, unprotected arms of the maze.
Female (n=40) and male (n=5) ICR outbred mice (100 days old; Envigo RMS, Jerusalem, Israel) were housed at 22±1° C. under 12 h light/dark cycles in the vivarium of the Open University lab in Hadassah medical center, Jerusalem. Mice had ad libitum access to rodent chow and water. Mice were housed in standard cages with a bed of woodchips and a piece of cotton wool for enrichment. All experiments were performed during the dark phase of the cycle. Male mice were used to father pups and were housed apart (5 per cage) from females until mating. […] Once a vaginal plug was identified, the females were transferred to a separate cage until parturition. Overall, 455 pups were delivered of which 317 (male: n=165; female: n=152) were designated for this study. Unassessed pups were maintained with littermates to avoid additional stress and ensure similar conditions. […]
Following mating, dams were separated to individual cages and were observed periodically to ensure onset of pregnancy. […] Shortly after, anxiety-like behavior was assessed on the EPM and dams were assigned to treatment group (escitalopram/shan-zha/vehicle). […]

Compound: CN(C)CCC[C@@]1(c2ccc(F)cc2)OCc2cc(C#N)ccc21 [escitalopram]
- RAB11b gene expression (rab11B gene): 0.77 fold change
- Ckb gene expression (Ckb gene): 0.83 fold change
- stress-induced anxiety-like behavior within treatment group, pups (21 days old pups; PND21, stressed vs naive pups): No similar stress-induced anxiety-like behavior was observed
- anxiety-like behavior in the EPM, treated stressed pups vs saline-treated stressed pups (21 days old pups; PND21, prenatal stress, treatment via lactation, dams 15 mg/kg s.c. daily): saline-treated stressed pups demonstrated elevated anxiety-like behavior compared to both shan-zha- and escitalopram-treated stressed pups; also recorded: the stress-vehicle group demonstrated increased anxiety-like behavior compared to the naïve-vehicle, stress-escitalopram and stress-shan-zha groups
